Columns and labels:
Type in all cases: in vivo, human
[1] = Average time to effect reported by participants; details: oral
Description: (§1) After receiving study product, each participant was instructed to take 1 softgel each day orally 1-2 hours before bed and complete weekly health and product use surveys. This phase of the study lasted about 4 weeks.
Participants reported experiencing an effect between 46 and 55 minutes after taking their study product.

[2] = Tolerability: side effects reported by participants
Description: (§2) The primary aim of this study was to assess the effects of three different formulations of TruCBN softgels and a formulation of 4 mg melatonin on sleep quality, relative to placebo control. There were 5 arms within the study; (1) 4 mg melatonin, (2) 25 mg CBN, (3) 50 mg CBN, (4) 100 mg CBN, and (5) placebo (see Table 1 for further details on study arm formulations). All study arms provided the test article as a softgel. Participants were instructed to take 1 softgel 1-2 hours before bed. To ensure that results were not biased, participants were randomly assigned to product, were blinded to the contents, and were not told what they were taking until the conclusion of the study. The secondary aim of the study was to assess the tolerability of the three formulations of TruCBN softgels and 4 mg melatonin, relative to placebo.
as §1
The side effects for all study arms were similar in frequency and mostly mild; none were considered serious or required use of emergency or non-emergency healthcare services. The most commonly reported side effect was grogginess or drowsiness (see FIG. 7). Additional side effects reported by some participants included: chest pain, constipation, urinary tract infection, tingling in lips, dry mouth, weight gain, dry or itchy eyes, low libido, rash, and brain fog.

sleep disturbance [3] = experiment: PROMIS Sleep Disturbance SF4A survey, randomized blinded placebo-controlled study; details: for Relative Risk for meaningful clinical improvement on the PROMIS Sleep SF4A / Estimated marginal percentage achieving meaningful clinical improvement on the PROMIS Sleep SF4A: 95% CI in parentheses; for Observed % Achieving Meaningful Clinical Improvement on the PROMIS Sleep SF4A: 30% or greater reduction from baseline; for Estimated marginal percentage achieving meaningful clinical improvement on the PROMIS Sleep SF4A: improvement = 30% or greater reduction from baseline
Description: as §2
(§3) Study participants were at least 21 years old, endorsed a desire for better sleep quality, and expressed interest in taking a cannabinoid product to improve their sleep. The study was entirely virtual; participants were recruited through online recruitment channels, study product was delivered directly to participants' homes, and all data were collected via online surveys delivered to their mobile device or computer. There were four phases of the study (see FIG. 1 for study timeline): (1) Recruitment and Randomization, (2) Baseline (1 week), (3) Study period (2-5 weeks), and (4) Conclusion.
The PROMIS™ Sleep Disturbance SF4A threshold for minimally important difference: One-half the standard deviation of the baseline score (Norman, G. R. et al., Med. Care, 2003, 41:582-592).
as §1
(§4) For precision, adjustments were made for sex, age, race, ethnicity, and body mass index (BMI) in every model. […] Analysis was conducted using Stata 17 and R. An intent-to-treat analysis was run, meaning that all participants who were assigned product (aside from the aforementioned exclusions) were included in the analysis according to their product assignment, regardless of product adherence or study attrition. Visuals of the predicted marginal means of health scores, rather than the raw mean scores, were prepared. Predicted marginal means were calculated from the statistical models and better represent the true differences between arms adjusting for any potential imbalances across arms. A finding that was “significant” means that the likelihood of falsely rejecting the null hypothesis that there were no differences between groups was very small (less than 5%; i.e., the p-value was less than 0.05). In other words, when certain findings were said to be “significant” they are not considered the result of random variation.

sleep disturbance [4] = experiment: Participant global impression of change (PGIC) in sleep disturbance; details: for Odds Ratio (95% Confidence interval), sleep disturbance PGIC: Dunnett correction; for Parameter estimate for PGIC in sleep disturbance: treatment reference placebo, log-odds scale
Description: as §2
Participants received a final study survey asking about their overall experiences and impressions. Afterwards they also receive a Report containing their individualized data.
as §4

sleep disturbance [5] = experiment: PROMIS Sleep Disturbance 8A survey, randomized blinded placebo-controlled study; details: for Relative Risk for meaningful clinical improvement on the PROMIS Sleep Disturbance 8A / Estimated marginal percentage achieving meaningful clinical improvement on the PROMIS Sleep 8A: 95% CI in parentheses; for Observed % Achieving Meaningful Clinical Improvement on the PROMIS Sleep 8A: 30% or greater reduction from baseline; for % experiencing MCID in PROMIS Sleep Disturbance 8A score: MCID = score reduction of one half the standard deviation of the baseline score; for Estimated marginal percentage achieving meaningful clinical improvement on the PROMIS Sleep 8A: improvement = 30% or greater reduction from baseline; for Parameter Estimate for PROMIS Sleep Disturbances 8a, Treatment: reference placebo, linear mixed-effects model
Description: as §2, §3
PROMIS™ Sleep Disturbance 8A: An 8-question survey, with severity thresholds based on T-scores not raw scores. The severity scores are established as follows: • “None to slight”=Less than 55 • “Mild”=55.0-59.9 • “Moderate”=60.0-69.9 • “Severe”=70 and up
The range of raw scores were from 8 to 40, with higher scores translating to greater sleep disturbance (i.e., worse sleep quality). PROMIS™ Sleep Disturbance 8A threshold for minimally important difference: One-half the standard deviation of the baseline score (Purvis, Taylor E. et al., SPINE, 2018, 43(21):1512-1520).
as §1, §4

## CCCCCc1cc(O)c2c(c1)OC(C)(C)c1ccc(C)cc1-2 [CBN, 6,6,9-trimethyl-3-pentyl-benzo[c]chromen-1-ol]
[1]; 25 mg CBN softgel
  Average time to effect: 54.9 min
[1]; 50 mg CBN softgel
  Average time to effect: 55.5 min
[1]; 100 mg CBN softgel
  Average time to effect: 46.4 min
[2]; 25 mg CBN
  % of participants reporting any side effects: 6.8%
[2]; 50 mg CBN
  % of participants reporting any side effects: 12.9%
[2]; 100 mg CBN
  % of participants reporting any side effects: 7.9%
Sleep disturbance [3]; 25 mg CBN − placebo
  Relative Risk for meaningful clinical improvement on the PROMIS Sleep SF4A: 1.35 (0.66, 2.03)
Sleep disturbance [3]; 25 mg CBN
  Observed % Achieving Meaningful Clinical Improvement on the PROMIS Sleep SF4A: 47.83%
  Estimated marginal percentage achieving meaningful clinical improvement on the PROMIS Sleep SF4A: 46.28% (34.73%, 61.7%)
Sleep disturbance [3]; 25 mg CBN, week 1
  Estimated marginal mean, PROMIS Sleep Disturbance SF4A: 11.0
Sleep disturbance [3]; 25 mg CBN, week 2
  Estimated marginal mean, PROMIS Sleep Disturbance SF4A: 10.81
Sleep disturbance [3]; 25 mg CBN, week 3
  Estimated marginal mean, PROMIS Sleep Disturbance SF4A: 11.1
Sleep disturbance [3]; 25 mg CBN, week 4
  Estimated marginal mean, PROMIS Sleep Disturbance SF4A: 10.9
Sleep disturbance [3]; 50 mg CBN − placebo
  Relative Risk for meaningful clinical improvement on the PROMIS Sleep SF4A: 1.59 (0.81, 2.37)
Sleep disturbance [3]; 50 mg CBN
  Observed % Achieving Meaningful Clinical Improvement on the PROMIS Sleep SF4A: 58.33%
  Estimated marginal percentage achieving meaningful clinical improvement on the PROMIS Sleep SF4A: 54.76% (41.80%, 71.7%)
Sleep disturbance [3]; 50 mg CBN, week 1
  Estimated marginal mean, PROMIS Sleep Disturbance SF4A: 10.7
Sleep disturbance [3]; 50 mg CBN, week 2
  Estimated marginal mean, PROMIS Sleep Disturbance SF4A: 10.9
Sleep disturbance [3]; 50 mg CBN, week 3
  Estimated marginal mean, PROMIS Sleep Disturbance SF4A: 10.8
Sleep disturbance [3]; 50 mg CBN, week 4
  Estimated marginal mean, PROMIS Sleep Disturbance SF4A: 10.3
Sleep disturbance [3]; 100 mg CBN − placebo
  Relative Risk for meaningful clinical improvement on the PROMIS Sleep SF4A: 1.47 (0.75, 2.19)
Sleep disturbance [3]; 100 mg CBN
  Observed % Achieving Meaningful Clinical Improvement on the PROMIS Sleep SF4A: 53.19%
  Estimated marginal percentage achieving meaningful clinical improvement on the PROMIS Sleep SF4A: 50.56% (38.37%, 66.6%)
Sleep disturbance [3]; 100 mg CBN, week 1
  Estimated marginal mean, PROMIS Sleep Disturbance SF4A: 10.8
Sleep disturbance [3]; 100 mg CBN, week 2
  Estimated marginal mean, PROMIS Sleep Disturbance SF4A: 11.33
Sleep disturbance [3]; 100 mg CBN, week 3
  Estimated marginal mean, PROMIS Sleep Disturbance SF4A: 10.8
Sleep disturbance [3]; 100 mg CBN, week 4
  Estimated marginal mean, PROMIS Sleep Disturbance SF4A: 10.8
Sleep disturbance [4]; 25 mg CBN
  Marginal mean (95% confidence interval), sleep disturbance PGIC: 3.81
  Parameter estimate for PGIC in sleep disturbance: 0.63
Sleep disturbance [4]; 25 mg CBN − placebo
  Odds Ratio (95% Confidence interval), sleep disturbance PGIC: 1.88 (0.98, 3.62)
Sleep disturbance [4]; 50 mg CBN
  Marginal mean (95% confidence interval), sleep disturbance PGIC: 3.91
  Parameter estimate for PGIC in sleep disturbance: 0.85
Sleep disturbance [4]; 50 mg CBN − placebo
  Odds Ratio (95% Confidence interval), sleep disturbance PGIC: 2.35 (1.22, 4.51)
Sleep disturbance [4]; 100 mg CBN
  Marginal mean (95% confidence interval), sleep disturbance PGIC: 3.91
  Parameter estimate for PGIC in sleep disturbance: 0.85
Sleep disturbance [4]; 100 mg CBN − placebo
  Odds Ratio (95% Confidence interval), sleep disturbance PGIC: 2.35 (1.24, 4.44)
Sleep disturbance [5]; 25 mg CBN − placebo
  Relative Risk for meaningful clinical improvement on the PROMIS Sleep Disturbance 8A: 1.33 (0.65, 2.01)
Sleep disturbance [5]; 25 mg CBN
  Observed % Achieving Meaningful Clinical Improvement on the PROMIS Sleep 8A: 46.7%
  % experiencing MCID in PROMIS Sleep Disturbance 8A score: 46.7%
  Estimated marginal percentage achieving meaningful clinical improvement on the PROMIS Sleep 8A: 47.1% (35.41%, 62.66%)
  Parameter Estimate for PROMIS Sleep Disturbances 8a, Treatment: 0.14
Sleep disturbance [5]; 25 mg CBN, week 1
  Estimated marginal mean, PROMIS Sleep Disturbance 8A: 21.6
Sleep disturbance [5]; 25 mg CBN, week 2
  Estimated marginal mean, PROMIS Sleep Disturbance 8A: 20.6
Sleep disturbance [5]; 25 mg CBN, week 3
  Estimated marginal mean, PROMIS Sleep Disturbance 8A: 21.3
Sleep disturbance [5]; 25 mg CBN, week 4
  Estimated marginal mean, PROMIS Sleep Disturbance 8A: 20.9
Sleep disturbance [5]; 50 mg CBN − placebo
  Relative Risk for meaningful clinical improvement on the PROMIS Sleep Disturbance 8A: 1.46 (0.72, 2.2)
Sleep disturbance [5]; 50 mg CBN
  Observed % Achieving Meaningful Clinical Improvement on the PROMIS Sleep 8A: 53.6%
  % experiencing MCID in PROMIS Sleep Disturbance 8A score: 53.6%
  Estimated marginal percentage achieving meaningful clinical improvement on the PROMIS Sleep 8A: 51.6% (38.93%, 68.48%)
  Parameter Estimate for PROMIS Sleep Disturbances 8a, Treatment: 0.28
Sleep disturbance [5]; 50 mg CBN, week 1
  Estimated marginal mean, PROMIS Sleep Disturbance 8A: 20.4
Sleep disturbance [5]; 50 mg CBN, week 2
  Estimated marginal mean, PROMIS Sleep Disturbance 8A: 21
Sleep disturbance [5]; 50 mg CBN, week 3
  Estimated marginal mean, PROMIS Sleep Disturbance 8A: 20.7
Sleep disturbance [5]; 50 mg CBN, week 4
  Estimated marginal mean, PROMIS Sleep Disturbance 8A: 20.3
Sleep disturbance [5]; 100 mg CBN − placebo
  Relative Risk for meaningful clinical improvement on the PROMIS Sleep Disturbance 8A: 1.39 (0.7, 2.08)
Sleep disturbance [5]; 100 mg CBN
  Observed % Achieving Meaningful Clinical Improvement on the PROMIS Sleep 8A: 50.0%
  % experiencing MCID in PROMIS Sleep Disturbance 8A score: 50.0%
  Estimated marginal percentage achieving meaningful clinical improvement on the PROMIS Sleep 8A: 49.1% (36.96%, 65.24%)
  Parameter Estimate for PROMIS Sleep Disturbances 8a, Treatment: 0.59
Sleep disturbance [5]; 100 mg CBN, week 1
  Estimated marginal mean, PROMIS Sleep Disturbance 8A: 20.99
Sleep disturbance [5]; 100 mg CBN, week 2
  Estimated marginal mean, PROMIS Sleep Disturbance 8A: 21.77
Sleep disturbance [5]; 100 mg CBN, week 3
  Estimated marginal mean, PROMIS Sleep Disturbance 8A: 20.84
Sleep disturbance [5]; 100 mg CBN, week 4
  Estimated marginal mean, PROMIS Sleep Disturbance 8A: 20.9
